US7153844B2, “Estrogen-linked platinum (II) complexes as anticancer agents” (priority 2002, dated 2006)

Assays:
Assay type in all cases: cell-based, human
HS578T = assay: Cell proliferation with the MTT assay; details: read-out: IC50 (Inhibitory concentration 50%), breast, ER−, NR = IC50 not reach at the concentrations tested
Excerpt: (§1) Cell Proliferation with the MTT Assay (Uterine, Ovarian and Breast Cancer Cell Lines)
(§2) Several human uterine, ovarian and breast cancer cell lines were used to evaluate the antitumor activities of the new estrogen-linked platinum (II) complexes. The cytotoxicity of the platinum (II) complexes was done along with cisplatin as the control on both ER+ and ER— human uterine, ovarian and breast carcinomas. Cell proliferation was done with the MTT assay as described by J. Carmichael et al. (Cancer Res. 47, 943–946 (1987) see also C. H. J. Ford et al., Cancer Chemother. Pharmacol. 24, 295–301 (1986)). The MTT assay is based on the ability of viable cells to reduce a soluble colorless tetrazolium salt, 3-(4,5-dimethylthiazol-2-yl)-2,5-diphenyltetrazolium bromide (MTT), into an insoluble blue formazan derivative.

A2780wt = assay: Cell proliferation with the MTT assay; details: read-out: IC50 (Inhibitory concentration 50%), ovary, ER−, NR = IC50 not reach at the concentrations tested
Excerpt: as §1, §2

A2780cp = assay: Cell proliferation with the MTT assay; details: read-out: IC50 (Inhibitory concentration 50%), ovary, ER−, NR = IC50 not reach at the concentrations tested
Excerpt: as §1, §2

HEC-1A = assay: Cell proliferation with the MTT assay; details: read-out: IC50 (Inhibitory concentration 50%), uterus, ER−, NR = IC50 not reach at the concentrations tested
Excerpt: as §1, §2

ZR-75-1 = assay: Cell proliferation with the MTT assay; details: read-out: IC50 (Inhibitory concentration 50%), ZR-75-1, breast, ER+, NR = IC50 not reach at the concentrations tested
Excerpt: as §1, §2

MDA-MB-231 [1] = assay: Cell proliferation with the MTT assay; details: read-out: IC50 (Inhibitory concentration 50%), MDA-MB-231, breast, ER−, NR = IC50 not reach at the concentrations tested
Excerpt: as §1, §2

RL-95-2 = assay: Cell proliferation with the MTT assay; details: read-out: IC50 (Inhibitory concentration 50%), RL-95-2, uterus, ER+, NR = IC50 not reach at the concentrations tested
Excerpt: as §1, §2

HeLa = assay: Cell proliferation with the MTT assay; details: read-out: IC50 (Inhibitory concentration 50%), uterus, ER−, NR = IC50 not reach at the concentrations tested
Excerpt: as §1, §2

OVCAR-3 = assay: Cell proliferation with the MTT assay; details: read-out: IC50 (Inhibitory concentration 50%), OVCAR-3, ovary, ER+, NR = IC50 not reach at the concentrations tested
Excerpt: as §1, §2

KLE = assay: Cell proliferation with the MTT assay; details: read-out: IC50 (Inhibitory concentration 50%), uterus, ER−, NR = IC50 not reach at the concentrations tested
Excerpt: as §1, §2

SKOV-3 = assay: Cell proliferation with the MTT assay; details: read-out: IC50 (Inhibitory concentration 50%), SKOV-3, ovary, ER+, NR = IC50 not reach at the concentrations tested
Excerpt: as §1, §2

MCF-7 [2] = assay: Cell proliferation with the MTT assay; details: read-out: IC50 (Inhibitory concentration 50%), MCF-7, breast, ER+, NR = IC50 not reach at the concentrations tested
Excerpt: as §1, §2

Ishikawa = assay: Cell proliferation with the MTT assay; details: read-out: IC50 (Inhibitory concentration 50%), uterus, ER+, NR = IC50 not reach at the concentrations tested
Excerpt: as §1, §2

MDA-MB-231 [3] = assay: Cell proliferation with the SRB assay; details: read-out: IC50 (Inhibitory concentration 50%), MDA-MB-231 (ER−) breast carcinoma
Excerpt: (§3) Cell Proliferation with the SRB Assay (Breast Cancer Cell Lines)
(§4) Two human breast tumor cell lines were used to evaluate the antitumor activities of the new estrogen-linked platinum (II) complexes. […] Cell proliferation was done with the sulforhodamine B (SRB) assay as described by Alley, M. C. et al. (Cancer Research. no 48, 589–601 (1988)) and Boyd, M. R. & Paull, K. D. (Drug Development Research. 34, 91–109, (1995)).

MCF-7 [4] = assay: Cell proliferation with the SRB assay; details: read-out: IC50 (Inhibitory concentration 50%), MCF-7 (ER+) breast carcinoma
Excerpt: as §3, §4

| Compound | IC50 (HS578T) [µM] | IC50 (A2780wt) [µM] | IC50 (A2780cp) [µM] | IC50 (HEC-1A) [µM] | IC50 (ZR-75-1) [µM] | IC50 (MDA-MB-231 [1]) [µM] | IC50 (RL-95-2) [µM] | IC50 (HeLa) [µM] | IC50 (OVCAR-3) [µM] | IC50 (KLE) [µM] | IC50 (SKOV-3) [µM] | IC50 (MCF-7 [2]) [µM] | IC50 (Ishikawa) [µM] | IC50 (MDA-MB-231 [3]) [µM] | IC50 (MCF-7 [4]) [µM] |
| --- | --- | --- | --- | --- | --- | --- | --- | --- | --- | --- | --- | --- | --- | --- | --- |
| 16β-hydroxymethyl-16α-[8′-(2-pyridin-2-yl-ethylamino)-3′,6′-dioxaoctyl]-1,3,5(10)-estratrien-3,17β-diol dichloroplatinum (II) [derivative 23] | 16.2 | 7.9 | 16 | 20.4 | 14.6 | 18.8 | 6.25 | 13.8 | 33.8 | 17.5 | 32.5 | 12.7 | 2.5 | – | – |
| N.N.[Cl][Pt][Cl] [Cisplatin, cis-diamminedichloroplatinum (II), reference compound] | – | – | – | 20.8 ± 4.7 | – | – | 14.1 ± 0.5 | – | – | 24.3 ± 6.3 | – | – | 3.7 ± 0.9 | 12.8 | 16.1 |
| C[C@]12CC[C@@H]3c4ccc(O)cc4CC[C@H]3[C@@H]1C[C@H](CCCCCCCCCCCNCc1ccccn1)[C@@H]2O.[Cl][Pt][Cl] [derivative 12 (∘ = 1), 16β-[11′-(2″-picolylamino)undecanyl]-1,3,5(10)-estratrien-3,17β-diol dichloroplatinate (II)] | – | – | – | 13 | – | – | 7 | – | – | 6 | – | – | 28 | 4.1 | 5.9 |
| C[C@]12CCC3c4ccc(O)cc4CCC3C1C[C@H](CCCCCCCCCCCNCCc1ccccn1)[C@@H]2O.[Cl][Pt][Cl] (stereo partly drawn) [derivative 12 (∘ = 2), 16β-[11′-(2″-pyridylethylamino)undecanyl]-1,3,5(10)-estratrien-3,17β-diol dichloroplatinate (II)] | – | – | – | 3.75 | – | – | 1 | – | – | 1.75 | – | – | 0.25 | < 0.78 | < 0.78 |
| C[C@]12CCC3c4ccc(O)cc4CCC3C1C[C@@](CO)(CCCCNCc1ccccn1)[C@@H]2O.[Cl][Pt][Cl] (stereo partly drawn) [derivative 14 (∘ = 1, p = 2), 16β-hydroxymethyl-16α-[4-(1-pyridin-2-yl-methylamino)-butyl]-1,3,5(10)-estratrien-3,17β-diol dichloroplatinum (II)] | > 40 | 33.7 | > 40 | > 40 | > 40 | > 40 | 40 | > 40 | > 40 | > 40 | > 40 | > 40 | 36 | – | – |
| C[C@]12CCC3c4ccc(O)cc4CCC3C1C[C@@](CO)(CCCCCCNCc1ccccn1)[C@@H]2O.[Cl][Pt][Cl] (stereo partly drawn) [derivative 14 (∘ = 1, p = 4), 16β-hydroxymethyl-16α-[6-(1-pyridin-2-yl-methylamino)-hexyl]-1,3,5(10)-estratrien-3,17β-diol dichloroplatinum (II)] | 36.2 | 23.5 | > 40 | 19.5 | > 40 | > 40 | 16 | 36.2 | > 40 | 36.2 | > 40 | > 40 | > 40 | – | – |
| C[C@]12CCC3c4ccc(O)cc4CCC3C1C[C@@](CO)(CCCCCCCCNCc1ccccn1)[C@@H]2O.[Cl][Pt][Cl] (stereo partly drawn) [derivative 14 (∘ = 1, p = 6), 16β-hydroxymethyl-16α-[8-(1-pyridin-2-yl-methylamino)-octyl]-1,3,5(10)-estratrien-3,17β-diol dichloroplatinum (II)] | 17.5 | 6.3 | 11 | 9.2 | 11.2 | 40 | 7.8 | 34.4 | 18.8 | 19.5 | 35 | 20 | 19.5 | – | – |
| C[C@]12CCC3c4ccc(O)cc4CCC3C1C[C@@](CO)(CCCCCCCCCCNCc1ccccn1)[C@@H]2O.[Cl][Pt][Cl] (stereo partly drawn) [derivative 14 (∘ = 1, p = 8), 16β-hydroxymethyl-16α-[10-(1-pyridin-2-yl-methylamino)-decyl]-1,3,5(10)-estratrien-3,17β-diol dichloroplatinum (II)] | 34.9 | 10 | 16.6 | 15.6 | 27.6 | 15.3 | 9.5 | 32.2 | 40 | 9.5 | > 40 | 17.7 | > 40 | – | – |
| C[C@]12CCC3c4ccc(O)cc4CCC3C1C[C@@](CO)(CCCCNCCc1ccccn1)[C@@H]2O.[Cl][Pt][Cl] (stereo partly drawn) [derivative 14 (∘ = 2, p = 2), 16β-hydroxymethyl-16α-[4-(2-pyridin-2-yl-ethylamino)-butyl]-1,3,5(10)-estratrien-3,17β-diol dichloroplatinum (II)] | 33 | 19.5 | 30.5 | 26.3 | 26.3 | > 40 | 10 | 34.5 | 31.2 | > 40 | 35.6 | 28.5 | 16 | – | – |
| C[C@]12CCC3c4ccc(O)cc4CCC3C1C[C@@](CO)(CCCCCCNCCc1ccccn1)[C@@H]2O.[Cl][Pt][Cl] (stereo partly drawn) [derivative 14 (∘ = 2, p = 4), 16β-hydroxymethyl-16α-[6-(2-pyridin-2-yl-ethylamino)-hexyl]-1,3,5(10)-estratrien-3,17β-diol dichloroplatinum (II)] | 7.25 | 5 | 7 | 6.4 | 11.4 | > 40 | 6.4 | 8.9 | 12.5 | 8.9 | 12.5 | 7 | 20 | – | – |
| C[C@]12CCC3c4ccc(O)cc4CCC3C1C[C@@](CO)(CCCCCCCCNCCc1ccccn1)[C@@H]2O.[Cl][Pt][Cl] (stereo partly drawn) [derivative 14 (∘ = 2, p = 6), 16β-hydroxymethyl-16α-[8′-(2-pyridin-2-yl-ethylamino)-octyl]-1,3,5(10)-estratrien-3,17β-diol dichloroplatinum (II)] | 4.3 | 3.3 | 3.6 | 2.1 | 4.6 | 10.5 | 0.1 | 4.6 | 5 | 2.7 | 4.8 | 6.4 | 8 | – | – |
| C[C@]12CCC3c4ccc(O)cc4CCC3C1C[C@@](CO)(CCCCCCCCCCNCCc1ccccn1)[C@@H]2O.[Cl][Pt][Cl] (stereo partly drawn) [derivative 14 (∘ = 2, p = 8), 16β-hydroxymethyl-16α-[10-(2-pyridin-2-yl-ethylamino)-decyl]-1,3,5(10)-estratrien-3,17β-diol dichloroplatinum (II)] | 3.3 | 1.65 | 2 | 2.4 | 2.5 | 4 | 3.1 | 6.8 | 9.5 | 3.7 | 5.8 | 4 | 2.2 | – | – |
